This is an account of results in the METLIN SMRT retention time set (Domingo-Almenara et al. 2019).

The data set can be described thus: gradient 5% acetonitrile 3 min, to 50% in 2 min, to 85% in 15 min, held 3 min, 100 µL/min. The note with it: column: Zorbax Extend-C18 2.1 x 50 mm; eluents: water / acetonitrile, 0.1% formic acid. In a few lines:
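Values are retention times taken from adduct peaks that software picked and an analyst inspected. The pure standards were run as mixtures of ~100 molecules on HPLC linked to a quadrupole time-of-flight mass spectrometer, in positive and negative ionization mode. A Zorbax Extend-C18 column (2.1 × 50 mm, 1.8 μm) was used at 100 μL/min with water and acetonitrile, each including 0.1% formic acid.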
As to `O=C(NCc1ccc(F)cc1F)C1CCN(C(=O)c2ncn3c2COC(c2ccccc2)C3)CC1` (centres undefined), the RP-LC retention time was determined as 784 s.

`Cc1c(C(N)=O)nnn1-c1ccccc1` returned an RP-LC retention time of 645 s.

Compound `COc1ccc(-c2ncc(C(=O)Nc3ccc(OC)cc3OC)c(-c3ccncc3)n2)cc1` had an RP-LC retention time of 839 s. `COc1ccc(N2CCN(S(=O)(=O)c3cc(-c4nc(C)cs4)cs3)CC2)cc1`: the RP-LC retention time stood at 1070 s. Consider `CNC(=O)c1nc(C(=O)NCc2ccc(C)cc2)cs1`, for which the RP-LC retention time was 739 s. With `Cc1ccccc1CC(=O)Nc1cc(-c2nnc(C3CC3)o2)sc1C`, the RP-LC retention time came to 724 s. `C[C@H]1CN(C(=O)Nc2cc(F)cc(F)c2)C[C@@H]1c1nc(-c2ccncc2)no1`: the RP-LC retention time was determined as 883 s.

`COc1ccc(CNC(=O)N2CCN(Cc3nc4cc(Cl)ccc4o3)CC2)cc1` yielded an RP-LC retention time of 667 s. Turning to `CCC(C)C(NC(=O)c1cccs1)C(=O)Nc1nc2ccccc2[nH]1` (centres undefined), the RP-LC retention time is 692 s.

For `Cc1[nH]c(=O)[nH]c(=O)c1CC(=O)N1CCN(c2cccc(Cl)c2Cl)CC1`, the RP-LC retention time worked out at 654 s. Regarding `Cc1cccc(NC(=O)C2CC(=O)N(c3n[nH]c4cccc(F)c34)C2)c1` (centres undefined), the RP-LC retention time stood at 759 s. Consider `COC(=O)c1ccc(NC(=O)Cn2c(=O)c3cc(C)nn3c3ncccc32)cc1`, for which the RP-LC retention time was 700 s. On to `COCCn1nc2n(c1=O)CCC1(CC2)CCN(C(=O)C2CCCO2)CC1` (centres undefined), for which the RP-LC retention time is 600 s. `Cc1ccc(NS(=O)(=O)c2c[nH]c3ncccc23)cc1F` gave an RP-LC retention time of 761 s.

For the compound `COc1ccc(Cl)c2c(=O)c3c([nH]c12)CCN(CC(=O)Nc1cccc(Cl)c1C)C3`, the RP-LC retention time was 651 s. The result for `Cc1ccc(C(=O)N2CCC(c3nc(-c4ccccc4)no3)C2)s1` (centres undefined) reads 949 s; that for `O=C(NCc1ccc2c(c1)OCO2)C(=O)Nc1ccon1`, 655 s; that for `Cn1cnnc1SCCNC(=O)c1ccc(OCC(=O)C2CC2)cc1`, 603 s. In turn, `CCc1ccc(Oc2cc(N3CCC(C(=O)NCCCOC)CC3)ncn2)cc1` registered an RP-LC retention time of 578 s. Regarding `CCOC(=O)N1CCC(NC(=O)CCc2cc3cc(C)ccc3[nH]c2=O)CC1`, the RP-LC retention time came to 677 s. With `CCc1cccc(NC(=O)Cn2nc3cc(C)nc(Nc4ccc(F)c(C)c4)n3c2=O)c1` the figure was 1190 s; with `Cc1nc2cccnc2n1C1CCN(C(=O)Nc2cccc(Br)c2)CC1`, 673 s; with `CCc1ccc(-c2noc(Cn3cnc4c(nnn4-c4ccccc4OC)c3=O)n2)cc1`, 1040 s. The compound `O=C(CCC1CCCN(S(=O)(=O)c2ccccc2F)C1)NC1CCS(=O)(=O)C1` (centres undefined) yielded an RP-LC retention time of 748 s. In the case of `O=C1CC(C(=O)N2CCN(c3ccccc3)CC2)CN1CCc1c[nH]c2ccc(F)cc12` (centres undefined), the RP-LC retention time worked out at 819 s. `COc1ccc(CN2C=C(C(=O)OCc3noc(-c4ccccc4F)n3)C(C)=NS2(=O)=O)cc1` showed an RP-LC retention time of 1090 s.

For the compound `O=C(N[C@H]1C[C@@H]2C[C@H]1CN2C(=O)c1cccc(OC(F)(F)F)c1)c1ccccc1`, the RP-LC retention time came to 846 s. `COC(=O)c1cc(C2CC2)nc2c1c(=O)n(Cc1cccc(Cl)c1)c(=O)n2C` registered an RP-LC retention time of 1160 s. The compound `COc1ccc(CNc2nc(-c3ccccc3)nnc2C)cc1` returned an RP-LC retention time of 683 s. For `CCn1c(=O)c(N2CCC(NC(=O)NC3CCCCC3)CC2)nc2ccccc21`, the RP-LC retention time stood at 831 s. Turning to `Cc1cc(=O)n(CC(=O)N2CCCc3ccccc32)c(N2CCOCC2)n1`, the RP-LC retention time came out at 687 s. `COCCNC(=O)CCc1cc2ccc(C)cc2[nH]c1=O` registered an RP-LC retention time of 614 s.

`Cc1ccc(-n2c(N3CCCC(C(=O)NCCc4cccs4)C3)nc3ccsc3c2=O)cc1` (centres undefined): the RP-LC retention time came out at 913 s.

For `CCOc1ccc(NC(=O)C2CCCN(c3ccc(=O)n(-c4ccc(C)c(Cl)c4)n3)C2)cc1` (centres undefined), the RP-LC retention time is 1010 s. For `Cc1cc(=O)n(CC(=O)Nc2ccc(F)cc2)c(N2CCCCC2)n1`, the RP-LC retention time amounted to 635 s. In turn, `CCc1ccc(Nc2cc(C(=O)N3CCC(C)CC3)nc3cc(OC)c(OC)cc23)cc1` showed an RP-LC retention time of 832 s. Regarding `CCc1noc(NC(C)=O)c1-c1ccc(OC)c(S(=O)(=O)Nc2ccc(S(N)(=O)=O)cc2)c1`, the RP-LC retention time came to 655 s.

In turn, `CCOCCCNC(=O)N1CC(Oc2ccc(-c3nc(C)no3)cc2)C1` gave an RP-LC retention time of 724 s. With `COc1ccc(OC)c(NC(=O)c2cnn(-c3ccc(Cl)cc3)c2)c1`, the RP-LC retention time is 991 s. In turn, `CCOC(=O)C1CCN(S(=O)(=O)c2c(C)nc3sc(C)nn23)CC1` gave an RP-LC retention time of 804 s. Compound `O=C1NC2(CCN(C(=O)c3ccccc3F)CC2)Nc2c(Cl)cccc21` gave an RP-LC retention time of 742 s. With `CCc1ccc(Nc2nc(C(=O)NCCOC)nc3ccccc23)cc1` the figure was 748 s; with `Cc1cc(-c2ccc(S(=O)(=O)N3CCC(C(=O)NC4CCCC4)CC3)o2)n[nH]1`, 737 s; with `COC(=O)[C@H](Cc1ccc([N+](=O)[O-])cc1)NC(=O)c1cccc2ccccc12`, 909 s. With `CCc1ccc(-c2cc(C(=O)N3CCN(c4cc(=O)n(C(C)C)c(=O)n4C(C)C)CC3)[nH]n2)cc1` the figure was 946 s; with `CC1=C(c2ccc(F)cc2)S(=O)(=O)N=C1N1CCCN(C(=O)c2ccncc2)CC1`, 649 s. `O=C(CSc1nnnn1-c1ccccc1)c1ccc2c(c1)OCCO2` had an RP-LC retention time of 868 s.

`CCc1nnc(-c2cn(CC(=O)Nc3cc(Cl)c(OC)cc3OC)c3ccccc23)o1` displayed an RP-LC retention time of 916 s. Regarding `C=CCNC(=O)c1cc(C)nc2c(C)cc(C)cc12`, the RP-LC retention time stood at 644 s. Consider `Cc1ccc2c(c1)N(S(C)(=O)=O)CCC(C(=O)NC1CC3CCC1C3)O2` (centres undefined), for which the RP-LC retention time came out at 941 s.

On to `COc1cccc(CNC(=O)C2(C)CCCN(C(=O)Nc3ccc4c(c3)OCCO4)C2)c1` (centres undefined), for which the RP-LC retention time was 802 s. As to `COCCn1c(=O)c2cc(C(=O)Nc3ccccc3)nn2c2ccccc21`, the RP-LC retention time is 714 s. As to `Cc1ccc(CCN2CC(C(=O)N3CCN(c4cc(=O)n(C)c(=O)n4C)CC3)CC2=O)cc1` (centres undefined), the RP-LC retention time stood at 656 s. As to `CCCNc1c(C(=O)OC)c(=O)[nH]c2ccc(F)cc12`, the RP-LC retention time stood at 699 s.

As for `O=C(c1ccc2c(c1)OCO2)N1CCC(c2nc(C3CC3)no2)C1` (centres undefined), the RP-LC retention time stood at 740 s. In turn, `Cc1n[nH]c(C)c1S(=O)(=O)N1CCC(c2nnc(-c3ccco3)s2)CC1` returned an RP-LC retention time of 660 s.

In turn, `CCCC(CCC)C(=O)NCCc1c[nH]c2ccc(C)cc12` yielded an RP-LC retention time of 996 s. For the compound `O=c1c2ccccc2c(-c2nc(-c3cccnc3)no2)cn1-c1cccc(Cl)c1`, the RP-LC retention time is 1130 s. The result for `CCCS(=O)(=O)N1CCC(Cc2nc(-c3ccncc3)n[nH]2)C1` (centres undefined) reads 576 s; that for `COc1ccc(N2CCN(C(=O)C3CCN(C(=O)C4Sc5ccccc5NC4=O)CC3)CC2)cc1` (centres undefined), 705 s. In the case of `CCN1CCC2(CC1)OC(=O)C(C)=C2C(=O)N1CCN(c2cccc(OC)c2)CC1`, the RP-LC retention time was 634 s. Regarding `O=C(NCc1ccco1)C1CCCN(c2nccnc2Sc2ccccc2)C1` (centres undefined), the RP-LC retention time was found to be 880 s. `COC1CCC12CCN(C(=O)c1ccco1)CC2` (centres undefined) came in with an RP-LC retention time of 735 s. Take `CCn1cc(S(=O)(=O)N2CCC(Cc3nc(-c4cccnc4)n[nH]3)C2)cn1` (centres undefined): the RP-LC retention time was 592 s. The result for `COC(=O)Cn1c(C2CC(=O)N(c3cccc(C)c3)C2)nc2ccccc21` (centres undefined) reads 758 s; that for `CCc1ccccc1NC(=O)Cc1c(C)nn(-c2nc(-c3ccccc3)cs2)c1C`, 704 s.

For `CCn1cc(-c2nc(CC(=O)NC3CCCC3)cs2)c2cccnc21`, the RP-LC retention time was 848 s.

Regarding `COc1cccc(CNC(=O)N2CCC3(CC2)NC(=O)c2ccccc2O3)c1`, the RP-LC retention time was determined as 739 s. The result for `COc1ccc(CCc2nc3nccc(-c4cccnc4)n3n2)cc1OC` reads 666 s; that for `CN(C)c1ccc(CNC(=O)C2CCN(c3cnc(N4CCCC4)nc3)CC2)cc1`, 557 s; that for `CC1CCN(C(=O)CSCc2nc3cccnc3n2C2CCCCC2)CC1`, 960 s. As to `O=C(NCCc1ccco1)c1ccc2nc(CCc3ccccc3)oc2c1`, the RP-LC retention time amounted to 930 s. Take `CCn1cc(-c2nc(CC(=O)NCc3ccc(Cl)cc3)cs2)c2cccnc21`: the RP-LC retention time was 904 s. On to `Cc1ccccc1Cn1ccnc1C(=O)N1CCNC(=O)C1`, for which the RP-LC retention time came out at 616 s. With `CCc1ccc(NC(=O)c2cc3sc(Cl)cc3n2C)cc1` the figure was 1210 s. `CCN(CC)S(=O)(=O)c1ccc2c(c1)cc(C(=O)NCCc1c[nH]c3ccc(Cl)cc13)n2C` came in with an RP-LC retention time of 1060 s. `Cc1cc(C(=O)Nc2ccc(S(C)(=O)=O)cc2)no1` registered an RP-LC retention time of 632 s. In turn, `Cc1cc(-c2nnc(C3CCC3)o2)c(C)n1CC(=O)NCc1cc(F)cc(F)c1` gave an RP-LC retention time of 864 s. With `O=C(c1nnn2c1COC(c1ccc(Cl)cc1)C2)N1CCN(C(=O)C2(c3ccccc3)CC2)CC1` (centres undefined) the figure was 996 s.
